Test results taken from patent US10472366B2, “Glucuronide prodrugs of tofacitinib” (THERAVANCE BIOPHARMA R&D IP, LLC, priority 2017, dated 2019).
Where “and” joins values, the source holds several entries; their conditions need not be identical. Equal values may be shown once.

Legend:
[1] = tested on: β-glucuronidase in rat colon feces; experiment: Rat colon fecal homogenate stability assay; type: in vitro ADME; conditions: in vitro half-life in rat fecal supernatant-homogenate, anaerobic, 10 μM substrate, individual values when assay repeated; for half-life at 10 μM: male, rat, rat colon fecal supernatant-homogenate, read-out: T½
From the text: The compounds of the present invention contain a glucuronide prodrug moiety that is expected to be cleaved by β-glucuronidase enzyme. The objective of this assay was to determine the half-life for compounds of the present invention in the presence of β-glucuronidase in rat colon feces.
Following sacrifice of a naïve male rat (˜300 g) by cardiac puncture exsanguination, the colon was ligated and removed to an anaerobic chamber (AS-580, Anaerobe Systems). The fecal content was removed within the chamber and was diluted 1:10 with phosphate buffer (1 gram fecal content to 9 mL phosphate buffer) and the resulting mixture was homogenized using a handheld Omni Tissue Master. The fecal homogenate was centrifuged at 2000 g for 10 min to remove bulk material and the supernatant was removed and used for the incubations.
DMSO stock solutions (10 mM) of the test compounds and sulfasalazine (control) were prepared. Sulfasalazine was used as a positive control to confirm viability of the fecal supernatant-homogenate (see, e.g., Azad Khan et al., Clinical Science (1983) 64, 349-354). If the in vitro half-life (T½) for sulfasalazine in the fecal sample was less than 30 min, the fecal sample was deemed to be viable and in true anaerobic conditions. However, if the T½ for sulfasalazine was greater than 30 min, the fecal sample was typically contaminated with oxygen and was not viable. The final substrate concentration of each assay was 10 μM. Reactions were started by adding a 5 μL aliquot of diluted test compound stock solution into 300 μL of rat fecal supernatant-homogenate. At 0, 15, 30, 60, 90, and 120 min post reaction initiation, a 50 μL aliquot was removed and added to a mixture of 200 μL of acetonitrile with 3% formic acid and an internal standard. All samples were centrifuged at 2000 g for 10 min after which 50 μL of supernatant was diluted into 150 μL of water for analysis on an LC-MS system. In vitro half-lives (T½) for the test compounds were calculated as follows: T½=0.693/elimination rate constant. When the assay was performed more than once, individual values are reported.

[2] = Oral pharmacokinetics in rat assay; type: in vivo; conditions: liberated tofacitinib AUC0-6 h in colon tissue; male Sprague Dawley rats, single PO dose 5 mg/kg of test compound
Description: When cleaved by β-glucuronidase enzyme, the compounds of the present invention release tofacitinib. The object of this assay was to determine tofacitinib exposure (AUC0-6 h) in colon tissue and plasma following oral dosing of compounds of the present invention in rats.
Male Sprague Dawley rats (n=2/time point) received a single PO oral gavage dose (5 mg/kg in 1:20 mixture of 5% DMSO and 1% HPMC) of test compounds. At 0.5, 1, 3, 6 and 24 h post-dosing, rats were sacrificed via cardiac puncture exsanguination, and blood samples were taken and placed into sample tubes (Microtainer, Becton, Dickinson and Company) containing sodium fluoride and then placed on ice. Plasma was obtained by centrifugation (Eppendorf centrifuge, 5804R) for 4 minutes at approximately 12,000 rpm at 4° C.
The colons were removed from exsanguinated rats and the colon contents gently removed. The colons were flushed with saline and patted dry. The colons were then homogenized in 3× the weight of sterile water using a tissue homogenizer (Precellys homogenizer, Bertin Instruments) at approximately 4° C. All samples were stored at −80° C. for later bioanalysis.
The concentration of tofacitinib in each sample was determined as follows: the plasma and colon samples were vortexed, combined with a 50 μL aliquot of rat plasma, extracted with 200 μL of ACN containing an internal standard and quantified against the internal standard by LC-MS. An area-under-the-concentration curve (AUC0-6 h) was calculated for plasma and colon test compound and liberated tofacitinib. A key parameter to assess suitability for localized delivery of tofacitinib to the colon was the tofacitinib colon to plasma AUC ratio.

[3] = tested on: oxazolone-induced colitis; experiment: Mouse model of oxazolone-induced colitis; type: in vivo; conditions: PO
Description: Oxazolone-induced colitis is an experimental model that has a histological resemblance to human ulcerative colitis (Heller et al. […], 2002, 17, 629-638). Adult BALB/C mice (25-28 g, 9-12 weeks of age) from BioNeeds (India) were used in the assay. On Day 1, animals were lightly anesthetized with isoflurane and the hairs between the shoulder were carefully removed. Oxazolone (6 mg/mouse, 100 μL, 4:1 acetone:olive oil formulation) or vehicle solution was slowly applied to the bare skin patch to induce skin sensitization. Six days after skin sensitization, the mice were fasted overnight and then anesthetized with ketamine and xylazine administered intraperitoneally. A 1 mL syringe filled with oxazolone solution (0.5 mg/50 μL/mouse in 50% ethanol) or 50% ethanol/saline was inserted carefully ˜3.8 cm into the colon of the mouse. Animals were kept in a head down position and oxazolone or vehicle solution was rectally instilled very slowly over a minute. The mice were held vertically (head down) for another minute to ensure that the entire oxazolone or vehicle solution remained inside the colon. Test compound treatment (PO, BID or TID) or vehicle was initiated the evening prior to the oxazolone intrarectal (IR) challenge. On both first (Day 1) and second (Day 2) days post-oxazolone IR challenge, the Disease Activity Index (DAI) was assessed by treatment-blinded experimenters for each mouse, according to the following subscores: stool consistency (0, normal; 2, loose; 4, diarrhea), gross bleeding and hemoccult test (0, absence; 2, blood tinged; 4, overt blood presence), and weight loss (0, none; 1, 1%-5%; 2, 6^%-10%; 3, 11%-15%; 4, more than 15%); DAI=average of (stool consistency+blood presence+weight loss scores).
An area-under-the-curve (AUC) calculation based on total DAI scores was performed to track disease progression during the course of the experiment. AUC for each experimental group was calculated as: AUC=[(Day 1−Day 0)*Average (DAI Score of Day 0 & Day 1)]+[(Day 2−Day 1)*Average (DAI Score of Day 1 & Day 2)]. A Student's t-test compared the DAI AUC score of the vehicle/vehicle and vehicle/oxazolone groups to evaluate whether disease was induced following oxazolone treatment. This was followed by a one-way analysis of variance (ANOVA), with Dunnett's post hoc test, to compare the DAI AUC score of the vehicle/oxazolone and test compound/oxazolone groups. Statistical significance was defined by an α level set at p<0.05.

[4] = Oral pharmacokinetics in mouse assay; type: in vivo; conditions: liberated tofacitinib AUC0-6 h in colon tissue; male Balb/c mice, single PO dose 5 mg/kg of test compound
Description: When cleaved by β-glucuronidase enzyme, the compounds of the present invention release tofacitinib. The object of this assay was to determine tofacitinib exposure (AUC0-6 h) in colon tissue and plasma following oral dosing of compounds of the present invention in mice.
Male Balb/c mice (n=2/time point) received a single PO oral gavage dose (5 mg/kg in 1:20 mixture of 5% DMSO and 1% HPMC) of the test compound. At 2 h and 6 h post-dosing, mice were sacrificed via cardiac puncture exsanguination and blood samples were taken and placed into sample tubes (Microtainer, Becton, Dickinson and Company) containing sodium fluoride and then placed on ice. Plasma was obtained by centrifugation (Eppendorf centrifuge, 5804R) for 4 min at approximately 12,000 rpm at 4° C.
The colons were removed from the exsanguinated mice and the colon fecal contents were gently removed. The colons were flushed with saline and patted dry. […]
The concentration of tofacitinib in each sample was determined as follows: the plasma and colon homogenate samples were vortexed, combined with a 50 μL aliquot of rat plasma, extracted with 200 μL of ACN containing an internal standard and quantified against the internal standard by LC-MS. An area-under-the-concentration curve (AUC0-6 h) was calculated for plasma and colon test compound and liberated tofacitinib. […]

[5] = 3, 10 and 30 mg/kg, BID, BALB/C mice, vs vehicle/oxazolone, p<0.05

| Structure (SMILES) | T½ [1] | half-life at 10 μM [1] [min] | Colon AUC [2] [µg·h/g] | reversal of oxazolone-induced colitis (DAI AUC score) [3, 5] | further results |
| --- | --- | --- | --- | --- | --- |
| C[C@@H]1CCN(C(=O)CC#N)C[C@@H]1N(C)c1ncnc2c1ccn2C(=O)N(C)CCN(C)C(=O)O[C@@H]1O[C@H](C(=O)O)[C@@H](O)[C@H](O)[C@H]1O [Compound II-1, (2S,3S,4S,5R,6S)-6-(((2-(4-(((3R,4R)-1-(2-Cyanoacetyl)-4-methylpiperidin-3-yl)(methyl)amino)-N-methyl-7H-pyrrolo[2,3-d]pyrimidine-7-carboxamido)ethyl)(methyl)carbamoyl)oxy)-3,4,5-trihydroxytetrahydro-2H-pyran-2-carboxylic Acid] | 16 min and < 15 min | 14 | 20.2 | – | reversal of oxazolone-induced colitis (DAI AUC score) ([3]; 3 and 30 mg/kg, BID, BALB/C mice, vs vehicle/oxazolone, p<0.05): statistically significant reversal |
| C[C@@H]1CCN(C(=O)CC#N)C[C@@H]1N(C)c1ncnc2c1ccn2C(=O)N(C)c1cc([N+](=O)[O-])ccc1O[C@@H]1O[C@H](C(=O)O)[C@@H](O)[C@H](O)[C@H]1O [Compound III-1, (2S,3S,4S,5R,6S)-6-(2-(4-(((3R,4R)-1-(2-Cyanoacetyl)-4-methylpiperidin-3-yl)(methyl)amino)-N-methyl-7H-pyrrolo[2,3-d]pyrimidine-7-carboxamido)-4-nitrophenoxy)-3,4,5-trihydroxytetrahydro-2H-pyran-2-carboxylic Acid] | – | 2 | – | – | Colon AUC [4]: 6.07 µg·h/g; reversal of oxazolone-induced colitis (DAI AUC score) ([3]; 30 mg/kg, BID, BALB/C mice, vs vehicle/oxazolone, p<0.05): statistically significant reversal |
| C[C@@H]1CCN(C(=O)CC#N)C[C@@H]1N(C)c1ncnc2[nH]ccc12 [tofacitinib, 3-((3R,4R)-4-methyl-3-(methyl(7H-pyrrolo[2,3-d]pyrimidin-4-yl)amino)piperidin-1-yl)-3-oxopropanenitrile] | – | – | – | – | reversal of oxazolone-induced colitis (DAI AUC score) ([3]; positive control, 60 mg/kg, experiment with Compound 11-6): did produce a statistically significant reversal; reversal of oxazolone-induced colitis (DAI AUC score) ([3]; positive control, 30 and 60 mg/kg, BID, experiment with Compound II-1): statistically significant reversal; reversal of oxazolone-induced colitis (DAI AUC score) ([3]; positive control, 30 and 60 mg/kg, BID, experiment with Compound III-1): did not produce a statistically significant reversal; reversal of oxazolone-induced colitis (DAI AUC score) ([3]; positive control, 30 and 60 mg/kg, BID, experiment with Compound III-2): statistically significant reversal |

More lines, main results first:

| T½ [1] | half-life at 10 μM [1] [min] | Colon AUC [2] [µg·h/g] | Structure (SMILES) | reversal of oxazolone-induced colitis (DAI AUC score) [3, 5] | further results |
| --- | --- | --- | --- | --- | --- |
| 29 min and < 15 min | 20 | 33.2 | C[C@@H]1CCN(C(=O)CC#N)C[C@@H]1N(C)c1ncnc2c1ccn2C(=O)N(C)c1ccccc1O[C@@H]1O[C@H](C(=O)O)[C@@H](O)[C@H](O)[C@H]1O [Compound III-2, (2S,3S,4S,5R,6S)-6-(2-(4-(((3R,4R)-1-(2-Cyanoacetyl)-4-methylpiperidin-3-yl)(methyl)amino)-N-methyl-7H-pyrrolo[2,3-d]pyrimidine-7-carboxamido)phenoxy)-3,4,5-trihydroxytetrahydro-2H-pyran-2-carboxylic Acid] | statistically significant reversal | – |
| <15, <15 min | < 15 | – | C[C@@H]1CCN(C(=O)CC#N)C[C@@H]1N(C)c1ncnc2c1ccn2C(=O)N(C)Cc1ccccc1O[C@@H]1O[C@H](C(=O)O)[C@@H](O)[C@H](O)[C@H]1O [Compound III-6, (2S,3S,4S,5R,6S)-6-(2-((4-(((3R,4R)-1-(2-Cyanoacetyl)-4-methylpiperidin-3-yl)(methyl)amino)-N-methyl-7H-pyrrolo[2,3-d]pyrimidine-7-carboxamido)methyl)phenoxy)-3,4,5-trihydroxytetrahydro-2H-pyran-2-carboxylic Acid] | did not produced a statistically significant effect | – |
| 1 min and < 15 min | – | 5.15 | C[C@@H]1CCN(C(=O)CC#N)C[C@@H]1N(C)c1ncnc2c1ccn2C(=O)N(C)Cc1ccccc1NC(=O)O[C@@H]1O[C@H](C(=O)O)[C@@H](O)[C@H](O)[C@H]1O [Compound IV-1] | – | – |
